Tested on in the first series: not given
Assay: not given
Settings: not given
Take `CCCc1nn(C)c2c(=O)n(CCOc3cccc(OC(C)(C)C(=O)OCC)c3)c(C)nc12` [Example 88, 2-{3-[2-(1,5-Dimethyl-7-oxo-3-propyl-1,7-dihydro-pyrazolo[4,3-d]pyrimidin-6-yl)-ethoxy]-phenoxy}-2-methyl-propionic acid ethyl ester]: the melting point – broadly, the temperature, or range, at which the solid turns liquid – is 86 to 88 °C. On the same count and under the same terms, in the case of `CCCc1nn(C)c2c(=O)n(CCOc3ccc(SC(C)(C)C(=O)OCC)cc3)c(C)nc12` [Example 31, 2-{4-[2-(1,5-Dimethyl-7-oxo-3-propyl-1,7-dihydro-pyrazolo[4,3-d]pyrimidin-6-yl)-ethoxy]-phenylsulfanyl}-2-methyl-propionic acid ethyl ester] it was 106 to 108 °C; in that of `CCCc1nn(C)c2c(=O)n(CCOc3ccc(OC(C)(C)C(=O)O)cc3)c(CC)nc12` [Example 70, 2-{4-[2-(5-Ethyl-1-methyl-7-oxo-3-propyl-1,7-dihydro-pyrazolo[4,3-d]pyrimidin-6-yl)-ethoxy]-phenoxy}-2-methyl-propionic acid], 108 to 110 °C. With `CCCc1nn(C)c2c(=O)n(CCOc3ccc(OC4(C(=O)O)CCC4)cc3)c(C)nc12` [Example 91, 1-{4-[2-(1,5-Dimethyl-7-oxo-3-propyl-1,7-dihydro-pyrazolo[4,3-d]pyrimidin-6-yl)-ethoxy]-phenoxy}-cyclobutanecarboxylic acid], the melting point fell in the range of 188 to 190 °C. On the same count and under the same terms, in the case of `CCc1nc2ccccc2c(=O)n1CCCCNc1ccc(SC(C)(C)C(=O)O)cc1` [Example 16, 2-{4-[4-(2-Ethyl-4-oxo-4H-quinazolin-3-yl)-butylamino]-phenylsulfanyl}-2-methyl-propionic acid] it was 58 to 62 °C; in that of `CCOC(=O)C(C)(C)Sc1ccc(OCCn2c(C)nc3ccccc3c2=O)cc1` [Example 21, 2-Methyl-2-{4-[2-(2-methyl-4-oxo-4H-quinazolin-3-yl)-ethoxy]-phenylsulfanyl}-propionic acid ethyl ester], 114 to 116 °C.

`CCCc1nn(C)c2c(=O)n(CCOc3ccc(SC(C)(C)C(=O)O)cc3)c(CC)nc12` [Example 44, 2-{4-[2-(5-Ethyl-1-methyl-7-oxo-3-propyl-1,7-dihydro-pyrazolo[4,3-d]pyrimidin-6-yl)-ethoxy]-phenylsulfanyl}-2-methyl-propionic acid] returned a melting point of 104 to 106 °C.

`CCCc1nn(C)c2c(=O)n(CCNc3ccc(OC(C)(C)C(=O)O)cc3)c(C)nc12` [Example 62, 2-{4-[2-(1,5-Dimethyl-7-oxo-3-propyl-1,7-dihydro-pyrazolo[4,3-d]pyrimidin-6-yl)-ethylamino]-phenoxy}-2-methyl-propionic acid] yielded a melting point of 88 to 90 °C. Same read-out and setting: in the case of `CCCc1nn(C)c2c(=O)n(CCCc3cccc(OC(C)(CC)C(=O)O)c3)c(C)nc12` (stereo not shown) [Example 87, 2-{3-[3-(1,5-Dimethyl-7-oxo-3-propyl-1,7-dihydro-pyrazolo[4,3-d]pyrimidin-6-yl)-propyl]-phenoxy}-2-methyl-butyric acid] it was 136 to 138 °C; in that of `CCCc1nn(C)c2c(=O)n(CCCOc3ccc(OC(C)(C)C(=O)O)cc3)c(C)nc12` [Example 66, 2-{4-[3-(1,5-Dimethyl-7-oxo-3-propyl-1,7-dihydro-pyrazolo[4,3-d]pyrimidin-6-yl)-propoxy]-phenoxy}-2-methyl-propionic acid], 158 to 160 °C. Same read-out and setting: under `CCCc1nn(C)c2c(=O)n(CCOc3ccc(NC(C)C(=O)OCC)cc3)c(CC)nc12` (stereo not shown) [Example 19, 2-{4-[2-(5-Ethyl-1-methyl-7-oxo-3-propyl-1,7-dihydro-pyrazolo[4,3-d]pyrimidin-6-yl)-ethoxy]-phenylamino}-propionic acid ethyl ester] stands 104 to 108 °C; under `CCCc1nn(C)c2c(=O)n(CCCOc3ccc(SC(C)(C)C(=O)OCC)cc3)c(C)nc12` [Example 35, 2-{4-[3-(1,5-Dimethyl-7-oxo-3-propyl-1,7-dihydro-pyrazolo[4,3-d]pyrimidin-6-yl)-propoxy]-phenylsulfanyl}-2-methyl-propionic acid ethyl ester], 52 to 54 °C; under `CCCc1nn(CC)c2c(=O)n(CCNc3ccc(SC(C)(C)C(=O)O)cc3)c(CC)nc12` [Example 48, 2-{4-[2-(1,5-Diethyl-7-oxo-3-propyl-1,7-dihydro-pyrazolo[4,3-d]pyrimidin-6-yl)-ethylamino]-phenylsulfanyl}-2-methyl-propionic acid], 143 to 145 °C. On the same count and under the same terms, in the case of `CCCc1nn(C)c2c(=O)n(CCNc3ccc(OC(C)(C)C(=O)O)cc3)c(CC)nc12` [Example 76, 2-{4-[2-(5-Ethyl-1-methyl-7-oxo-3-propyl-1,7-dihydro-pyrazolo[4,3-d]pyrimidin-6-yl)-ethylamino]-phenoxy}-2-methyl-propionic acid] it was 136 to 138 °C; in that of `CCc1nc2ccccc2c(=O)n1CCCNc1ccc(SC(C)(C)C(=O)O)cc1` [Example 10, 2-{4-[3-(2-Ethyl-4-oxo-4H-quinazolin-3-yl)-propylamino]-phenylsulfanyl}-2-methyl-propionic acid], 60 to 62 °C. `Cc1nc2ccccc2c(=O)n1CCCOc1ccc(SC(C)(C)C(=O)O)cc1` [Example 26, 2-Methyl-2-{4-[3-(2-methyl-4-oxo-4H-quinazolin-3-yl)-propoxy]-phenylsulfanyl}-propionic acid]: the melting point was in the range of 144 to 146 °C.

Regarding `CCCc1nn(CC)c2c(=O)n(CCCOc3ccc(SC(C)(C)C(=O)O)cc3)c(C)nc12` [Example 28, 2-{4-[3-(1-Ethyl-5-methyl-7-oxo-3-propyl-1,7-dihydro-pyrazolo[4,3-d]pyrimidin-6-yl)-propoxy]-phenylsulfanyl}-2-methyl-propionic acid], the melting point was 118 to 120 °C. The same measure, in the same setting: in the case of `CCCc1nn(CC)c2c(=O)n(CCNc3ccc(SC(C)(C)C(=O)OCC)cc3)c(CC)nc12` [Example 47, 2-{4-[2-(1,5-Diethyl-7-oxo-3-propyl-1,7-dihydro-pyrazolo[4,3-d]pyrimidin-6-yl)-ethylamino]-phenylsulfanyl}-2-methyl-propionic acid ethyl ester] it was 85 to 87 °C; in that of `CCCc1nn(C)c2c(=O)n(CCOc3cc(O[C@@](C)(CC)C(=O)O)ccc3Cl)c(C)nc12` [Example 106, S-(−)-2-{4-Chloro-3-[2-(1,5-dimethyl-7-oxo-3-propyl-1,7-dihydro-pyrazolo[4,3-d]pyrimidin-6-yl)-ethoxy]-phenoxy}-2-methyl-butyric acid], 99 to 100 °C; in that of `CCCc1nn(CC)c2c(=O)n(CCOc3cccc(OC(C)(C)C(=O)O)c3)c(C)nc12` [Example 93, 2-{3-[2-(1-Ethyl-5-methyl-7-oxo-3-propyl-1,7-dihydro-pyrazolo[4,3-d]pyrimidin-6-yl)-ethoxy]-phenoxy}-2-methyl-propionic acid], 147 to 149 °C.

Take `CCOC(=O)C(C)(C)Sc1ccc(OCCn2c(CC)nc3ccccc3c2=O)cc1` [Example 33, 2-{4-[2-(2-Ethyl-4-oxo-4H-quinazolin-3-yl)-ethoxy]-phenylsulfanyl}-2-methyl-propionic acid ethyl ester]: the melting point lay in the range of 120 to 122 °C.

Another series deals with T1, human PPARα (Homo sapiens, UniProt Q07869).
T1 construct: expressed in transfected cells; host or cells: HEK-293
T1 sequence (Q07869 239-466 limits assumed): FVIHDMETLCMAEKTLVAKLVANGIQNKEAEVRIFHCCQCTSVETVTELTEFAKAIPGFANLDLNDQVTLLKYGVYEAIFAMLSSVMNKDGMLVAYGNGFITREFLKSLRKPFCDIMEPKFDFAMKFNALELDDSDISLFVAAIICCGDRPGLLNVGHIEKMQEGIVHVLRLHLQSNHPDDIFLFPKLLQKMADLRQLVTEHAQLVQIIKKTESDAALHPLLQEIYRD
The series can be described thus: in vitro PPARα transactivation, GAL4-LBD luciferase reporter in HEK-293 cells. Format: cell-based. Conditions: test compound at 1 μM; luciferase fold activation relative to untreated cells. From the text: A number of derivatives of the invention have shown PPAR agonist activity. The following procedure was used for in vitro determination of PPARα, γ and δ transactivation.
(§1) The ligand binding domain of human PPARγ1, PPARα or PPARδ was fused to the C-terminal end of DNA binding domain of yeast transcription factor GAL4 in eukaryotic expression vector. HEK-293 cells were transfected with either of these plasmids, reporter plasmid pGL2 (Gal4×5)˜SV40˜Luc and pAdVantage using superfect (Qiagen, Germany) for 3 hours. pAdVantage vector was used to enhance the luciferase expression. 48 hours after transfection, the cells were harvested and incubated overnight with or without test compounds at different concentrations. The cells were lysed and luciferase activity was measured using the LucLite kit (Packard USA). Luciferase activity was measured as fold activation relative to untreated cells.
(In general: A reporter such as luciferase makes a cellular process visible.)
`CCCc1nn(C)c2c(=O)n(CCOc3cccc(OC(C)(C)C(=O)OCC)c3)c(C)nc12` [Example 88, 2-{3-[2-(1,5-Dimethyl-7-oxo-3-propyl-1,7-dihydro-pyrazolo[4,3-d]pyrimidin-6-yl)-ethoxy]-phenoxy}-2-methyl-propionic acid ethyl ester]: the PPARα activation amounted to 1.6.

The same series, now with this note: test compound at 10 μM; luciferase fold activation relative to untreated cells.
In turn, `CCCc1nn(C)c2c(=O)n(CCOc3cccc(OC(C)(C)C(=O)OCC)c3)c(C)nc12` [Example 88, 2-{3-[2-(1,5-Dimethyl-7-oxo-3-propyl-1,7-dihydro-pyrazolo[4,3-d]pyrimidin-6-yl)-ethoxy]-phenoxy}-2-methyl-propionic acid ethyl ester] returned a PPARα activation of 3.6.

For the next series, the target named is T2, human PPARδ (Homo sapiens, UniProt Q03181).
T2 construct: expressed in transfected cells; host or cells: HEK-293
T2 sequence (Q03181 211-439 limits assumed): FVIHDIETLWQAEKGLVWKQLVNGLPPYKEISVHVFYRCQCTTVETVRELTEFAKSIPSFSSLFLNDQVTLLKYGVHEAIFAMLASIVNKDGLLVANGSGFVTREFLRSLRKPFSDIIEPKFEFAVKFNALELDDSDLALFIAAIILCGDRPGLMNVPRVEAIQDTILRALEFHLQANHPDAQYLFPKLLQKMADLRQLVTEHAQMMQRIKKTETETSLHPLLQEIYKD
The series can be described thus: in vitro PPARδ transactivation, GAL4-LBD luciferase reporter in HEK-293 cells. Conditions: test compound at 1 μM; luciferase fold activation relative to untreated cells. Format: cell-based. As to the method: The following procedure was used for in vitro determination of PPARα, γ and δ transactivation.
as §1
On to `CCCc1nn(C)c2c(=O)n(CCOc3cccc(OC(C)(C)C(=O)OCC)c3)c(C)nc12` [Example 88, 2-{3-[2-(1,5-Dimethyl-7-oxo-3-propyl-1,7-dihydro-pyrazolo[4,3-d]pyrimidin-6-yl)-ethoxy]-phenoxy}-2-methyl-propionic acid ethyl ester], for which the PPARδ activation was 0.3.

The same series, now with this note: test compound at 10 μM; luciferase fold activation relative to untreated cells.
The compound `CCCc1nn(C)c2c(=O)n(CCOc3cccc(OC(C)(C)C(=O)OCC)c3)c(C)nc12` [Example 88, 2-{3-[2-(1,5-Dimethyl-7-oxo-3-propyl-1,7-dihydro-pyrazolo[4,3-d]pyrimidin-6-yl)-ethoxy]-phenoxy}-2-methyl-propionic acid ethyl ester] had a PPARδ activation of 0.6.

The values are drawn from patent US20080114005A1, “Fibrate Compounds Having Ppar Agonist Activity” (Dr. Reddy's Laboratories Limited, priority 2004, published 2008).
